Assay [1] deals with T1, Androgen receptor (Rattus norvegicus, UniProt P15207).
T1 sequence (P15207 whole entry): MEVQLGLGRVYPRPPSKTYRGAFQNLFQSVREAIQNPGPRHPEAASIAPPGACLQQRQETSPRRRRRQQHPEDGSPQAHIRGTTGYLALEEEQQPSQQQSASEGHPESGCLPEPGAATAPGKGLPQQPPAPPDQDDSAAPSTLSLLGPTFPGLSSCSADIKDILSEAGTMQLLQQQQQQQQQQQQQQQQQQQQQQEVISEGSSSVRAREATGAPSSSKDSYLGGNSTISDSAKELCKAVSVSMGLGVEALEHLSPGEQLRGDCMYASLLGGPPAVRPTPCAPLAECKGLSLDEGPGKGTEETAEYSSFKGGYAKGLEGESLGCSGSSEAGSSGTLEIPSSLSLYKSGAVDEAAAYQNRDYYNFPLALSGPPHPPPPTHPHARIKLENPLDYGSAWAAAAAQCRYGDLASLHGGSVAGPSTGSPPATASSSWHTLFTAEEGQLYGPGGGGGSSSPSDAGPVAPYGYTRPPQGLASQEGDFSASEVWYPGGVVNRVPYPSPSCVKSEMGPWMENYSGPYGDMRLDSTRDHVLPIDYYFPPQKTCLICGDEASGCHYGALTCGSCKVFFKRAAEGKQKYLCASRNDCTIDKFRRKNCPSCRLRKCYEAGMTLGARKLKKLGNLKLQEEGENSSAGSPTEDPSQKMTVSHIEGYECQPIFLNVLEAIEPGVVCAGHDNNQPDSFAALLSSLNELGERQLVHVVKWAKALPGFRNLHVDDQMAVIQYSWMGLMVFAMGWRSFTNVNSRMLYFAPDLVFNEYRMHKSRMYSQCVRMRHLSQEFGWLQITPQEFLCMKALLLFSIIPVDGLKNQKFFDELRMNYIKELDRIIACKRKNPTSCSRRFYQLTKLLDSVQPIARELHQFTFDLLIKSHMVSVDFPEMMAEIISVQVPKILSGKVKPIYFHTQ
Description: In vivo binding affinity for rat ventral prostate androgen receptor by displacement of [3H]R-1881

Assay [2] deals with T2, Androgen receptor (Rattus norvegicus) (UniProt P15207).
T2 sequence (whole entry): T1 sequence (P15207 whole entry)
The experiment in a line: […] relative binding affinity (1h/18h) as ratio of binding affinities for R1881 and compound against rat ventral prostate androgen receptor using [3H]- R1881 as radioligand; 1.2/0.05.

Assay [3] concerns the target T2, Androgen receptor (Rattus norvegicus). The experiment in a line: […] relative binding affinity (1h/18h) as ratio of binding affinities for R1881 and compound against rat ventral prostate androgen receptor using [3H]- R1881 as radioligand; <0.01/<0.01.
In assay [4] the target is T1, Androgen receptor. The assay is described as follows: […] binding affinity for rat ventral prostate androgen receptor by displacement of [3H]R-1881. Details: species or system Prostate gland.
The target in assay [5] is T2, Androgen receptor (Rattus norvegicus). The experiment in a line: […] relative binding affinity (1h/18h) as ratio of binding affinities for R1881 and compound against rat ventral prostate androgen receptor using [3H]- R1881 as radioligand; 0.26/0.04.
For assay [6] the target is unchanged. The experiment in a line: […] relative binding affinity (1h/18h) as ratio of binding affinities for R1881 and compound against rat ventral prostate androgen receptor using [3H]- R1881 as radioligand; <.01/<.01.

In general, Ki refers to a measure of affinity in units of concentration, obtained from inhibition or displacement. A higher Ki goes with a looser hold on the target. For `C#C[C@]1(O)CCC2C3CC[C@H]4Cc5oc(S(C)(=O)=O)cc5C[C@]4(C)C3CC[C@@]21C` (some centres undefined), the affinity in assay [1] corresponds to a Ki of 0.52 µM.

Take `C#C[C@]1(O)CCC2C3CC[C@H]4Cc5oc(S(C)(=O)=O)nc5C[C@]4(C)C3CC[C@@]21C` (some centres undefined): in assay [2], the relative binding affinity (RBA) turned out to be 1.2. For `C#C[C@]1(O)CCC2C3CC[C@H]4Cc5cc(S(C)(=O)=O)oc5C[C@]4(C)C3CC[C@@]21C` (some centres undefined), in assay [3], the relative binding affinity (RBA) is under 0.01. In assay [1], this compound returned a Ki of over 29 µM.

In assay [4], `C#C[C@]1(O)CCC2C3CC[C@H]4Cc5nc(S(C)(=O)=O)ncc5C[C@]4(C)C3CC[C@@]21C` (some centres undefined) had a Ki of 3 µM. Further, in assay [5], the relative binding affinity (RBA) turned out to be 0.26. On to `C#C[C@]1(O)CCC2C3CC[C@H]4Cc5sc(S(C)(=O)=O)cc5C[C@]4(C)C3CC[C@@]21C` (some centres undefined), for which, in assay [6], the relative binding affinity (RBA) is under 0.01. Further, the Ki in assay [1] is over 29 µM.

For `C#C[C@]1(O)CCC2C3CC[C@H]4Cc5nc(S(C)(=O)=O)sc5C[C@]4(C)C3CC[C@@]21C` (some centres undefined), in assay [1], affinity was put at a Ki of 0.86 µM.
